Measurements reported in patent US7964595B2, “Thiophenyl prostaglandin derivatives for treating glaucoma and ocular hypertension” (Allergan, Inc., priority 2008, dated 2011).

System: lashes and adjacent hairs of patients
Experiment: Clinical observation of eyelash/hair growth in glaucoma patients treated in one eye
Type: in vivo
Settings: glaucoma patients treated in one eye only
Source text: In the course of treating patients having glaucoma, treatment may only be appropriate in one eye. […] The lash appearance on the lids of the treated eyes would have appeared quite attractive if it represented a bilateral phenomenon. As a result of its asymmetric nature, the long lashes on one side could be construed as disturbing from a cosmetic standpoint. A systemic examination was preformed as a result of the asymmetric phenomenon. It soon became apparent that this altered appearance was not an isolated finding. […] Definite differences could be identified to varying degrees in the lashes and adjacent hairs of all patients who were taking the drug on a unilateral basis for longer than 6 months.
The changes in the lashes were apparent on gross inspection in several patients once attention was focused on the issue. In those with light colored hair and lashes, the differences were only seen easily with the aid of the high magnification and lighting capabilities of the slit lamp biomicroscope. In the course of glaucoma follow-up examination, attention is generally immediately focused on the eye itself. As a result of the high power magnification needed only one eye is seen at a time and the eye is seen at a high enough power that the lashes are not in focus. […]

CCNC(=O)CCC/C=C\C[C@@H]1[C@@H](/C=C/[C@@H](O)CCc2ccccc2)[C@H](O)C[C@@H]1O [bimatoprost]
lash appearance in treated eye versus non-treated eye: longer, thicker, and fuller
